According to ChEMBL document CHEMBL1153172, “Oxo-bridged isomers of aza-trishomocubane sigma (sigma) receptor ligands: Synthesis, in vitro binding, and molecular modeling” (Bioorg Med Chem Lett, 2010):

Columns and labels:
[1] = biological target: T1, Sodium-dependent dopamine transporter (Homo sapiens, UniProt Q01959); assay: Binding affinity to DAT
[2] = biological target: Sigma non-opioid intracellular receptor 1 (Homo sapiens, UniProt Q99720); assay: Binding affinity to sigma 1 receptor
[3] = Selectivity, ratio of Ki for sigma 1 to Ki for sigma 2
[4] = Inhibition of 5HT receptor at 10 uM
[5] = biological target: T2, Alpha-2C adrenergic receptor (Homo sapiens, UniProt P18825); assay: (§1) Binding affinity to Alpha2C adrenoceptor receptor
T2 sequence (P18825 whole entry): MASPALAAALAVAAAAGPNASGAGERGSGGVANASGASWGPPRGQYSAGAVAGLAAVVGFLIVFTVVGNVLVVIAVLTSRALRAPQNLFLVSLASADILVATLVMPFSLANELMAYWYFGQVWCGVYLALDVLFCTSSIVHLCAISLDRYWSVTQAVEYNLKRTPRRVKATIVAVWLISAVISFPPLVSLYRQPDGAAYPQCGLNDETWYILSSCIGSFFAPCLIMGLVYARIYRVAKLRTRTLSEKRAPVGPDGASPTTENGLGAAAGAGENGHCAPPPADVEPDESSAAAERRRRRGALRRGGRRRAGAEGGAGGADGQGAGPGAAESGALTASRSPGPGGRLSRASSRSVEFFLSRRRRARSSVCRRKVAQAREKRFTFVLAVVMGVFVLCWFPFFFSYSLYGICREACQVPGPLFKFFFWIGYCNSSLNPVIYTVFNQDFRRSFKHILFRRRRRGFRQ

[6] = biological target: T3, Alpha-2C adrenergic receptor (Homo sapiens) (UniProt P18825); assay: Inhibition of Alpha2C adrenoceptor receptor at 10 uM
T3 sequence (whole entry): T2 sequence (P18825 whole entry)

[7] = Binding affinity to sigma 2 receptor
[8] = biological target: T1, Sodium-dependent dopamine transporter; assay: Inhibition of DAT at 10 uM
[9] = biological target: Histamine H1 receptor (Homo sapiens) (UniProt P35367); assay: Inhibition of histamine H1 receptor at 10 uM
[10] = biological target: 5-hydroxytryptamine receptor 5A (Homo sapiens) (UniProt P47898); assay: Inhibition of 5HT5A receptor at 10 uM
[11] = biological target: Beta-1 adrenergic receptor (Homo sapiens) (UniProt P08588); assay: Inhibition of beta-1 adrenoceptor receptor at 10 uM
[12] = biological target: 5-hydroxytryptamine receptor 1D (Homo sapiens) (UniProt P28221); assay: Inhibition of 5HT1D receptor at 10 uM
[13] = biological target: 5-hydroxytryptamine receptor 7 (Homo sapiens) (UniProt P34969); assay: Inhibition of 5HT7 receptor at 10 uM
[14] = biological target: Delta-type opioid receptor (Homo sapiens) (UniProt P41143); assay: Inhibition of Delta opioid receptor at 10 uM
[15] = biological target: Alpha-1A adrenergic receptor (Homo sapiens) (UniProt P35348); assay: Inhibition of Alpha1A adrenoceptor receptor at 10 uM
[16] = biological target: 5-hydroxytryptamine receptor 4 (Homo sapiens) (UniProt Q13639); assay: Inhibition of 5HT4 receptor at 10 uM
[17] = biological target: 5-hydroxytryptamine receptor 3A (Homo sapiens) (UniProt P46098); assay: Inhibition of 5HT3 receptor at 10 uM
[18] = biological target: Kappa-type opioid receptor (Homo sapiens) (UniProt P41145); assay: Inhibition of Kappa opioid receptor at 10 uM
[19] = biological target: Alpha-2B adrenergic receptor (Homo sapiens) (UniProt P18089); assay: Inhibition of Alpha2B adrenoceptor receptor at 10 uM
[20] = biological target: 5-hydroxytryptamine receptor 1B (Homo sapiens) (UniProt P28222); assay: Inhibition of 5HT1B receptor at 10 uM
[21] = Inhibition of Ca2+ channel at 10 uM
[22] = biological target: Cannabinoid receptor 2 (Homo sapiens) (UniProt P34972); assay: Inhibition of CB2 receptor at 10 uM
[23] = biological target: 5-hydroxytryptamine receptor 1E (Homo sapiens) (UniProt P28566); assay: Inhibition of 5HT1E receptor at 10 uM
[24] = biological target: Cannabinoid receptor 1 (Homo sapiens) (UniProt P21554); assay: Inhibition of CB1 receptor at 10 uM
[25] = biological target: Histamine H4 receptor (Homo sapiens) (UniProt Q9H3N8); assay: Inhibition of histamine H4 receptor at 10 uM
[26] = biological target: Histamine H3 receptor (Homo sapiens) (UniProt Q9Y5N1); assay: Inhibition of histamine H3 receptor at 10 uM
[27] = biological target: Alpha-1B adrenergic receptor (Homo sapiens) (UniProt P35368); assay: Inhibition of Alpha1B adrenoceptor receptor at 10 uM
[28] = biological target: 5-hydroxytryptamine receptor 6 (Homo sapiens) (UniProt P50406); assay: Inhibition of 5HT6 receptor at 10 uM
[29] = biological target: D(2) dopamine receptor (Homo sapiens) (UniProt P14416); assay: Inhibition of D2 receptor at 10 uM
[30] = biological target: 5-hydroxytryptamine receptor 2B (Homo sapiens) (UniProt P41595); assay: Inhibition of 5HT2B receptor at 10 uM
[31] = biological target: Mu-type opioid receptor (Homo sapiens) (UniProt P35372); assay: Inhibition of mu opioid receptor at 10 uM
[32] = biological target: T4, Sodium-dependent noradrenaline transporter (Homo sapiens, UniProt P23975); assay: Binding affinity to NET
[33] = biological target: Beta-2 adrenergic receptor (Homo sapiens) (UniProt P07550); assay: Inhibition of beta2 adrenoceptor receptor at 10 uM
[34] = biological target: Histamine H2 receptor (Homo sapiens) (UniProt P25021); assay: Inhibition of histamine H2 receptor at 10 uM
[35] = biological target: 5-hydroxytryptamine receptor 2C (Homo sapiens) (UniProt P28335); assay: Inhibition of 5HT2C receptor at 10 uM
[36] = biological target: T2, Alpha-2C adrenergic receptor; assay: as §1; remark: listed apart in the source
[37] = biological target: D(1A) dopamine receptor (Homo sapiens) (UniProt P21728); assay: Inhibition of D1 receptor at 10 uM
[38] = biological target: Alpha-2A adrenergic receptor (Homo sapiens) (UniProt P08913); assay: Inhibition of Alpha2A adrenoceptor receptor at 10 uM
[39] = Inhibition of phencyclidine binding site of NMDA receptor at 10 uM
[40] = biological target: 5-hydroxytryptamine receptor 2A (Homo sapiens) (UniProt P28223); assay: Inhibition of 5HT2A receptor at 10 uM
[41] = biological target: 5-hydroxytryptamine receptor 1A (Homo sapiens, UniProt P08908); assay: Binding affinity to 5HT1A receptor
[42] = biological target: T4, Sodium-dependent noradrenaline transporter; assay: Inhibition of NET at 10 uM
[43] = biological target: 5-hydroxytryptamine receptor 1A (Homo sapiens) (UniProt P08908); assay: Inhibition of 5HT1A receptor at 10 uM

T1 sequence (Q01959 whole entry): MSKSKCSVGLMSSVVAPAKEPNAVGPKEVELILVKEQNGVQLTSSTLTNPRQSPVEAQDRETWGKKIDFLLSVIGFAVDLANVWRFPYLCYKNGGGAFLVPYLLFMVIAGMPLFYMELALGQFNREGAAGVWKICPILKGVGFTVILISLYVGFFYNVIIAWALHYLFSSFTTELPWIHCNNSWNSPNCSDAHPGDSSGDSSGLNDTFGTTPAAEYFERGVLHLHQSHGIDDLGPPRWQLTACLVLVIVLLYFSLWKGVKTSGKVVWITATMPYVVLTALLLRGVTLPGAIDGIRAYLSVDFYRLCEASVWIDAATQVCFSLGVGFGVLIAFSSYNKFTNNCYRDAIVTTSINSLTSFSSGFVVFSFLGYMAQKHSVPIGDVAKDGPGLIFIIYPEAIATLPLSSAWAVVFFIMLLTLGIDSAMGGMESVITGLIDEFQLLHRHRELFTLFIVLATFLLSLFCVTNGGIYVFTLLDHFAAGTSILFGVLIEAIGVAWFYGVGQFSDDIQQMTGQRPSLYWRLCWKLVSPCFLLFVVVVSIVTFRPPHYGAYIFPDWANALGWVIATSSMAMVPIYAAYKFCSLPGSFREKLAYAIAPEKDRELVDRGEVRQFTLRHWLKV
Sequence of Sigma non-opioid intracellular receptor 1 (Q99720 whole entry): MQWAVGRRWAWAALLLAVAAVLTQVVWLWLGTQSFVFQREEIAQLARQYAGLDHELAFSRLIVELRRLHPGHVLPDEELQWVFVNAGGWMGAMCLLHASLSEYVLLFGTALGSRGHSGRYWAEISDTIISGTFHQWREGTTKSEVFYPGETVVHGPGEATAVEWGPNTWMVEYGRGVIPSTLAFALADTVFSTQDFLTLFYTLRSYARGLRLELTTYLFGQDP
Sequence of 5-hydroxytryptamine receptor 1B (Homo sapiens) (P28222 whole entry): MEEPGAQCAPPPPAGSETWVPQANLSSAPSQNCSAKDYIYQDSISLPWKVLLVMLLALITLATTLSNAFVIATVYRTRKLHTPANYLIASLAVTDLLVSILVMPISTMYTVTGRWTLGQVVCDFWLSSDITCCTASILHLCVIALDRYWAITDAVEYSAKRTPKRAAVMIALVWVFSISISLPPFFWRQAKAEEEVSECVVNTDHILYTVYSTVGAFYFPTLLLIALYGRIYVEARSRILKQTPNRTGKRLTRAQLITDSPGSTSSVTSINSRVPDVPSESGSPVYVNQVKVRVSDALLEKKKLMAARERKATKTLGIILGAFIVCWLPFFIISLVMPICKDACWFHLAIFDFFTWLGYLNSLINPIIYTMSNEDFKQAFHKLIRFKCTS
Sequence of Mu-type opioid receptor (Homo sapiens) (P35372 whole entry): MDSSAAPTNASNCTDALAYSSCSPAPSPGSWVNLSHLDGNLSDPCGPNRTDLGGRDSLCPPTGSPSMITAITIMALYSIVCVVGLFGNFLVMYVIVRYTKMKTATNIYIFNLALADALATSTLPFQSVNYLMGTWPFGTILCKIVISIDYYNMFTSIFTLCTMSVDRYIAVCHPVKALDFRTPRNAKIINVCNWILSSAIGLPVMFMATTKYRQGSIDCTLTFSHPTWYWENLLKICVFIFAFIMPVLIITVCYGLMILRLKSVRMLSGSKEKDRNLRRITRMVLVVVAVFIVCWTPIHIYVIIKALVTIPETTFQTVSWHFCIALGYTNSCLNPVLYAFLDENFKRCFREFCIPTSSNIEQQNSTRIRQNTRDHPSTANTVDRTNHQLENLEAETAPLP
Sequence of Alpha-2A adrenergic receptor (Homo sapiens) (P08913 whole entry): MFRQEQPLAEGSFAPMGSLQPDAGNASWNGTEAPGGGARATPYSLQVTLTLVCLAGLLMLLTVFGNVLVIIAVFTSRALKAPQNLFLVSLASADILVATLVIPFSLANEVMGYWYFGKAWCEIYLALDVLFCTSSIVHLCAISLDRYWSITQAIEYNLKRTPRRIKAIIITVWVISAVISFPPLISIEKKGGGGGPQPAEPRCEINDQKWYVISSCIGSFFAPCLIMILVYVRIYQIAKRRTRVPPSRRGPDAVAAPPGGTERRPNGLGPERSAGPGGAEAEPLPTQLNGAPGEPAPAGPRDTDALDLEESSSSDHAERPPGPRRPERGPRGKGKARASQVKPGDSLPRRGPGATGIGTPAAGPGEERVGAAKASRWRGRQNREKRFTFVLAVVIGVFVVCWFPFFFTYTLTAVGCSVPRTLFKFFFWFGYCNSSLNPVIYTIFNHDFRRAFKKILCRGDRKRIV
Sequence of 5-hydroxytryptamine receptor 1E (Homo sapiens) (P28566 whole entry): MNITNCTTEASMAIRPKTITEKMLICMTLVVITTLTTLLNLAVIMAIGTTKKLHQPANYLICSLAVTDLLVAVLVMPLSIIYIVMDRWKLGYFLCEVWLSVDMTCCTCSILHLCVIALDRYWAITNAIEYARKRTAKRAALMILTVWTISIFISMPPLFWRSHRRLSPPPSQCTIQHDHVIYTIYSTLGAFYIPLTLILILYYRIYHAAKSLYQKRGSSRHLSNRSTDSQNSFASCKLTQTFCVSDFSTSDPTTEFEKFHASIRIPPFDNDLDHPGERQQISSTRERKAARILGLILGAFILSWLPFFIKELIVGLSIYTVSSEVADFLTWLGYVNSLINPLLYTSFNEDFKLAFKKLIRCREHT
Sequence of Histamine H4 receptor (Homo sapiens) (Q9H3N8 whole entry): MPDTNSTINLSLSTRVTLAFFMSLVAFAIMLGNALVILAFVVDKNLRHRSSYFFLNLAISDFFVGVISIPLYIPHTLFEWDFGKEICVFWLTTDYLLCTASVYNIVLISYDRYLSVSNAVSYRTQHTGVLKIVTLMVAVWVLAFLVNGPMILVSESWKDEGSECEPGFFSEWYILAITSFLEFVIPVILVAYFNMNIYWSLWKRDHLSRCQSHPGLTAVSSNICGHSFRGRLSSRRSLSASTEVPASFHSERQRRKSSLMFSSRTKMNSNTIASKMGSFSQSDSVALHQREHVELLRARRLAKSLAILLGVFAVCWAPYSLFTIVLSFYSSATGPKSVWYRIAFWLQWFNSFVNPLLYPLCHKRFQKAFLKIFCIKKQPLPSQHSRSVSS
Sequence of Alpha-1A adrenergic receptor (Homo sapiens) (P35348 whole entry): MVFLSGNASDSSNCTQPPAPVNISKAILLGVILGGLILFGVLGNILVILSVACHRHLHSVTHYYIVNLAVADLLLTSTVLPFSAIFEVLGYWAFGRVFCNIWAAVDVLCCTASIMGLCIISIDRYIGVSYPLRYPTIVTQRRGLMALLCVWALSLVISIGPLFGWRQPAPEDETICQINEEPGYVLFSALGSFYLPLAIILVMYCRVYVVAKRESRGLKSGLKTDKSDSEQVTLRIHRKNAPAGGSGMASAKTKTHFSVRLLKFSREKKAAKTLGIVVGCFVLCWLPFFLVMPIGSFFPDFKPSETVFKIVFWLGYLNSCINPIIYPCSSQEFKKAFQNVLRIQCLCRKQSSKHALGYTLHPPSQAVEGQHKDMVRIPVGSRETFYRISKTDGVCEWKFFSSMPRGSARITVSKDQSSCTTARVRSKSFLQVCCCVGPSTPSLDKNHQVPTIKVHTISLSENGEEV
Sequence of Histamine H3 receptor (Homo sapiens) (Q9Y5N1 whole entry): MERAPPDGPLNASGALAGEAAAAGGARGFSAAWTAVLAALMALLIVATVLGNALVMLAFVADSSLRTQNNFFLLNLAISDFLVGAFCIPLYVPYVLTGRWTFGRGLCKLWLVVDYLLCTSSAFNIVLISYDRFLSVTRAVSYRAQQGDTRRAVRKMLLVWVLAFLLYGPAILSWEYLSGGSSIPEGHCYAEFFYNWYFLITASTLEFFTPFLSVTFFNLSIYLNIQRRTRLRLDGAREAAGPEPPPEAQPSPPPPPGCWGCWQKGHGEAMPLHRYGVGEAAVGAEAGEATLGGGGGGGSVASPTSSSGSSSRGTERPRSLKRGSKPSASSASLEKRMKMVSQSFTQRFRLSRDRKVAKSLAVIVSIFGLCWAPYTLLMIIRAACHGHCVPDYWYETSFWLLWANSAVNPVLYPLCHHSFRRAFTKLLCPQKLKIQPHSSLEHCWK
Sequence of D(1A) dopamine receptor (Homo sapiens) (P21728 whole entry): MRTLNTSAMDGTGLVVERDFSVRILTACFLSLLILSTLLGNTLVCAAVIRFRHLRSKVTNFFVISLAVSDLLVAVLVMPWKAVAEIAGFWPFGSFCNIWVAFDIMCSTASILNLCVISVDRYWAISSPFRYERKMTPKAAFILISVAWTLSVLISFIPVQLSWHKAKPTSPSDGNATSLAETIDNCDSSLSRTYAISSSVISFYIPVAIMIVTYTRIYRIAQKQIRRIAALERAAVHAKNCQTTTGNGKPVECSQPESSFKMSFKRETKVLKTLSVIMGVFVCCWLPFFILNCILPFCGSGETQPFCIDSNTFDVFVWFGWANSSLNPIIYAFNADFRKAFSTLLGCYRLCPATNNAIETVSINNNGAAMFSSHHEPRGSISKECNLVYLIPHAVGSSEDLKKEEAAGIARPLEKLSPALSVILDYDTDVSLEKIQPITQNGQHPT
Sequence of 5-hydroxytryptamine receptor 7 (Homo sapiens) (P34969 whole entry): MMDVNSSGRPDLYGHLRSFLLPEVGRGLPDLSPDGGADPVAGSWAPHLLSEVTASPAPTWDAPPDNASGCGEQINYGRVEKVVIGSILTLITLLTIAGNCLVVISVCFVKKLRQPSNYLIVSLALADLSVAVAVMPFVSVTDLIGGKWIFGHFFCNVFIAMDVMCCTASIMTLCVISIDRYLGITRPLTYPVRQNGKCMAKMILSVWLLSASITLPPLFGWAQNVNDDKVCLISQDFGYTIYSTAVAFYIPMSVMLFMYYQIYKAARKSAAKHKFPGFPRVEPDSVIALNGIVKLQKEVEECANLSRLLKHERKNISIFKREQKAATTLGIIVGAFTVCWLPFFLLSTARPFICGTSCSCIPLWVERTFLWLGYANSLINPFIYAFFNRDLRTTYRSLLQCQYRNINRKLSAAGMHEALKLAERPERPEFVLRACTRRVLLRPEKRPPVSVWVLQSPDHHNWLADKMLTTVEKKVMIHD

In the case of `OC12C3C4CC5C6C4C1C6C(C53)N2CCc1cccc(F)c1` (stereo not drawn), the Ki [1] is reported as > 10000 nM, the Ki [2] is reported as 12 nM and the Ratio [3] is reported as 0.25. For the same compound, the inhibition [4] was < 50%, the Ki [5] was > 10000 nM and the inhibition [6] was < 50%. The Ki [7] was 48 nM and the inhibition [8] was < 50%.

With `OC12C3C4CC5C6C4C1C6C(C53)N2Cc1cccc(F)c1` (stereo not drawn) the Ki [1] was > 10000 nM, the Ki [2] was 153 nM and the Ratio [3] was 4.94. For the same compound, the inhibition [4] was < 50%, the Ki [5] was > 10000 nM and the inhibition [6] was < 50%. For the same compound, the Ki [7] was 31 nM and the inhibition [8] was < 50%.

For `Fc1cccc(CCNC23OC4C5C6CC(C7C6C4C72)C53)c1` (stereo not drawn), the inhibition [9] was < 50%, the inhibition [10] was < 50% and the inhibition [11] was < 50%. The Ki [1] was 137 nM, the inhibition [12] was < 50% and the Ki [2] was 149 nM. The inhibition [13] was < 50%, the inhibition [14] was < 50% and the inhibition [15] was < 50%. The inhibition [16] was < 50%, the Ratio [3] was 0.41 and the inhibition [17] was < 50%. For the same compound, the inhibition [4] was < 50%, the inhibition [18] was < 50% and the inhibition [19] was < 50%. The Ki [5] was 20 nM, the inhibition [20] was < 50% and the inhibition [21] was < 50%. For the same compound, the inhibition [22] was < 50%, the inhibition [23] was < 50% and the inhibition [24] was < 50%. The inhibition [25] was < 50%, the inhibition [26] was < 50% and the inhibition [27] was < 50%. The Ki [7] was 363 nM, the inhibition [28] was < 50% and the inhibition [29] was < 50%. The inhibition [30] was < 50%, the inhibition [31] was < 50% and the Ki [32] was > 10000 nM. The inhibition [33] was < 50%, the inhibition [34] was < 50% and the inhibition [35] was < 50%. For the same compound, the Ki [36] was 20 nM, the inhibition [37] was < 50% and the inhibition [38] was < 50%. For the same compound, the inhibition [39] was < 50%, the inhibition [40] was < 50% and the Ki [41] was > 10000 nM.

In the case of `Fc1cccc(CNC23OC4C5C6CC(C7C6C4C72)C53)c1` (stereo not drawn), the inhibition [9] is reported as < 50%, the inhibition [10] is reported as < 50% and the inhibition [11] is reported as < 50%. The Ki [1] was > 10000 nM, the inhibition [12] was < 50% and the Ki [2] was 2280 nM. For the same compound, the inhibition [13] was < 50%, the inhibition [14] was < 50% and the inhibition [15] was < 50%. For the same compound, the Ratio [3] was 1.39, the inhibition [17] was < 50% and the inhibition [4] was < 50%. The inhibition [18] was < 50%, the inhibition [42] was < 50% and the inhibition [19] was < 50%. For the same compound, the inhibition [6] was < 50%, the inhibition [20] was < 50% and the inhibition [43] was < 50%. For the same compound, the inhibition [21] was < 50%, the inhibition [22] was < 50% and the inhibition [23] was < 50%. The inhibition [24] was < 50%, the inhibition [25] was < 50% and the inhibition [26] was < 50%. For the same compound, the inhibition [27] was < 50%, the Ki [7] was 1640 nM and the inhibition [28] was < 50%. For the same compound, the inhibition [8] was < 50%, the inhibition [29] was < 50% and the inhibition [30] was < 50%. The inhibition [31] was < 50%, the inhibition [33] was < 50% and the inhibition [34] was < 50%. For the same compound, the inhibition [35] was < 50%, the inhibition [37] was < 50% and the inhibition [38] was < 50%. The inhibition [39] was < 50% and the inhibition [40] was < 50%.
